Experiment [1] concerns gastric acid secretion. As to the kind of experiment: Inhibition of Gastric Acid Secretion (Pylorous-Ligated Rat), Shay rat procedure. The conditions noted are these: read-out: % Inhibition of Control Gastric Acid Secretion; for inhibition in vivo at 100 mg/kg: 100 mg./kg. intraduodenal; for inhibition in vivo at 50 mg/kg: 50 mg./kg. intraduodenal. Format: in vivo, rats (male, CFE strain). In a few lines:
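Male CFE rats were fasted 48 h, then pylorus-ligated under ether. Gastric contents were titrated with 0.02N or 0.04N NaOH to pH 8.4 for acid output, and ≥20% inhibition counted as active.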

Experiment [2] has as its system bronchospasms elicited by acetylcholine. As to the kind of experiment: Bronchodilator Activity (Konzett Assay) against acetylcholine. As to conditions: Cavia porcellus; three logarithmic cumulative intravenous doses. Format: in vivo, guinea pigs. In a few lines:
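Guinea pigs given intravenous spasmogen (5-hydroxytryptamine, histamine or acetylcholine) per Konzett procedure. ED50 derived from three logarithmic cumulative intravenous doses of test compound.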

The subject of experiment [3] is dl-PGE1-induced contraction of gerbil colon. The experiment is described as follows: Inhibition of dl-PGE1-Induced Contraction of Gerbil Colon (prostaglandin antagonist action). As to conditions: Meriones unguiculatus, 1 min. The format is cell-based, gerbils (Meriones unguiculatus). In a few lines: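 Ascending colon from male gerbils, held in De Jalon's solution at 37 °C under 95% O2/5% CO2 with 0.5 g resting tension, contraction recorded isometrically. 1 min compound exposure, then 1 min dl-PGE1 at 200 ng/ml (maximal) or 20 ng/ml (sub-maximal). Approximate ID50 taken from a concentration series against the preceding agonist-only cycle.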

The mark [4] stands for this setting: sub-maximal challenge, 20 ng./ml. dl-PGE1, 50% inhibition of maximum response, read-out: ID50 vs. 20 ng. of PGE1/ml.
Setting [5] is: 200 ng./ml. dl-PGE1, read-out: ID50 vs. 200 ng. of PGE1/ml.

Among the data in patent publication US4044043A, “Derivatives of 9-oxo-13-trans-prostenoic acid esters” (American Cyanamid Company, priority 1975, dated 1977) are inhibition in vivo, ED50 and IC50 values, retold here.

What is called ED50 is the midpoint of the dose-response relation. High values mean a need for a large dose, low ones an effect at a small dose.

Converted amounts (≈) assume the structure as drawn. Where two headings read alike, the source gives them in different places.

Consider `CCCCC/C=C/[C@H]1CCC(=O)[C@@H]1CCCCCCC(=O)O` (relative stereo) [9-oxo-20-nor-13-trans-prostenoic acid], for which, in experiment [1], the inhibition in vivo at 100 mg/kg amounted to 49%. Moreover, the 50% effect level in experiment [2] (ED50) was put at a dose of 1.17 mg/kg. Further, in experiment [3] (setting [4]), the IC50 is 5 µg/mL (≈ 16.2 µM).

As to `O=C(O)CCCCCC[C@@H]1C(=O)CC[C@H]1/C=C/CCCCl` (relative stereo) [20-chloro-9-oxo-17,18,19-trinor-13-trans-prostenoic acid], the inhibition in vivo at 100 mg/kg in experiment [1] came out at 34%. The same compound displayed an ED50 in experiment [2] of 3.87 mg/kg. Besides, the IC50 in experiment [3] (setting [4]) lay in the range of 1 to 2.5 µg/mL (≈ 3.18 to 7.94 µM).

As to `O=C(O)CCCCCC[C@H]1C(=O)CC[C@@H]1/C=C/CCCCCCCl` (relative stereo) [20-chloro-9-oxo-13-trans-prostenoic acid], the inhibition in vivo at 100 mg/kg in experiment [1] came to 56%. In experiment [2], this compound registered an ED50 of 4.82 mg/kg. In experiment [3] (setting [4]), the IC50 was 5 to 10 µg/mL (≈ 14 to 28 µM).

Regarding `CCC/C=C/[C@H]1CCC(=O)[C@@H]1CCCCCCC(=O)O` (relative stereo) [9-oxo-18,19,20-trinor-13-trans-prostenoic acid], in experiment [1], the inhibition in vivo at 50 mg/kg worked out at 50% and the inhibition in vivo at 100 mg/kg is 92%. In experiment [2], this compound displayed an ED50 of 6.42 mg/kg. Moreover, in experiment [3] (setting [5]), the IC50 is 10 to 15 µg/mL (≈ 35.7 to 53.5 µM).

In the case of `CCCCCC/C=C/[C@H]1CCC(=O)[C@@H]1CCCCCCC(=O)O` (relative stereo) [9-oxo-13-trans-prostenoic acid], the inhibition in vivo at 200 mg/kg in experiment [1] (200 mg./kg. intraduodenal) turned out to be 69%. Moreover, the ED50 in experiment [2] is 1.02 mg/kg. The IC50 is 9 to 10 µg/mL (≈ 27.9 to 31 µM) in experiment [3] (setting [5]) and 1.5 to 2 µg/mL (≈ 4.65 to 6.2 µM) in experiment [3] (setting [4]).

For the compound `CCCCCCC/C=C/[C@@H]1CCC(=O)[C@H]1CCCCCCC(=O)O` (relative stereo) [20-methyl-9-oxo-13-trans-prostenoic acid], in experiment [1], the inhibition in vivo at 100 mg/kg was determined as 34%. Also, it took a dose of 2.44 mg/kg to reach the 50% effect level in experiment [2] (ED50). Also, the IC50 in experiment [3] (setting [4]) is 2 to 2.5 µg/mL (≈ 5.94 to 7.43 µM).

`CC/C=C\CC/C=C/[C@@H]1CCC(=O)[C@H]1CCCCCCC(=O)O` (relative stereo) [9-oxo-13-trans-17-cis-prostadienoic acid]: the inhibition in vivo at 100 mg/kg in experiment [1] came to 21%. The compound further yielded an ED50 in experiment [2] of 6 mg/kg. Besides, the IC50 in experiment [3] (setting [4]) lay within 2.5 to 5 µg/mL (≈ 7.8 to 15.6 µM).

With `CC(C)CC/C=C/[C@@H]1CCC(=O)[C@H]1CCCCCCC(=O)O` (relative stereo) [17-methyl-9-oxo-19,20-dinor-13-trans-prostenoic acid], the inhibition in vivo at 100 mg/kg in experiment [1] worked out at 28%. The ED50 in experiment [2] stood at 4.3 mg/kg. In experiment [3] (setting [4]), the IC50 lay within 0.25 to 0.5 µg/mL (≈ 0.81 to 1.62 µM).

On to `CCCCCC/C=C/[C@@H]1CCCC(=O)[C@H]1CCCCCCC(=O)O` (relative stereo) [9-oxo-10a-homo-13-trans-prostenoic acid], for which the inhibition in vivo at 50 mg/kg in experiment [1] was 80%. In addition, the ED50 in experiment [2] was above 10.1 mg/kg. Also, the IC50 in experiment [3] (setting [4]) fell in the range of 2.5 to 5 µg/mL (≈ 7.43 to 14.9 µM).
